Data set [1] is described as follows: Brain and plasma compound levels by LC-MS/MS after 5 mg/kg i.p. injection into mice. The method, then:
One-month old B6C3HF1 female mice were given intraperitoneal injections of compounds at 5 mg/kg. 1 hour after injection, mice were lethally anesthetized with an intraperitoneal injection of ketamine hydrochloride (1 mg/10 g) and xylazine (0.1 mg/10 g) and perfused intracardially with PBS in accordance with protocols approved by the University of Pennsylvania.
Brain samples were homogenized in 10 mM ammonium acetate, pH 5.7 (1:2; w/v) using a handheld sonic homogenizer. Compound from 50 μL of brain homogenate or plasma was extracted with 200 μL acetonitrile, centrifuged, and the supernatant removed for LC/MS/MS analysis. Compounds were detected using multiple reaction monitoring (MRM) of their specific collision-induced ion transitions and quantified using peak areas.
The LC/MS/MS system was comprised of an Agility UPLC, a TQ MS, and controlled using MassLynx software (Waters Corporation, Milford, Mass., USA). Samples were separated on an Aquity BEH C18 column (1.7 μm, 2.1×50 mm) at 35° C. For operation in positive electrospray ionization mode, the mobile phase A was 0.1% (v/v) formic acid, and B was either acetonitrile or methanol with 0.1% (v/v) formic acid. For operation in negative electrospray ionization mode, the mobile phase A was 10 mM ammonium acetate, and B was methanol with 10 mM ammonium acetate, Injections of 5 μL were separated at a flow rate of 0.6 mL/min using a gradient from 5% to 95% B over two minutes followed by wash and re-equilibration steps.
The MS was operated with a desolvation temperature of 450° C. and a source temperature of 150° C. Desolvation and source nitrogen gas flows were 900 L/hr and 50 L/hr, respectively. Collision cell argon gas flow was 0.1 mL/min. Source and analyzer voltages were optimized for each compound using the MassLynx auto tune utility. Compound standards at 1000 ng/mL in 50% acetonitrile were infused at 30 μL/min and combined with flow from the UPLC at 0.6 mL/min and 50% B.
Standard curves were generated from spiked brain homogenate and plasma prepared at 4, 40, 400 and 4000 ng/mL and extracted as above. Peak area was plotted versus concentration and a 1/x weighted linear regression curve was used to quantify the unknowns using the average peak area from triplicate injections,
The following experiments were designed to analyze TP receptor antagonists to determine their relative BBB penetration. The TP receptor antagonists were administered via i.p. injection at 5 mg/kg to normal mice, and brain and plasma compound concentrations were assessed by LC-MS/MS at 1 and 4 hours after dosing.
To examine the blood-brain barrier permeability of these compounds, one-month old B6C3F1 mice were injected at 5 mg/kg and sacrificed 1 hour after injection.

Data set [2] can be described thus: Unbound fractions in plasma and brain homogenates by equilibrium dialysis. Type of data set: in vitro ADME. From the text:
Without wishing to be bound by any particular theory, it is believed that it is possible (although uncommon) for a BBB-permeable compound to have a very low B/P ratio if the fraction of free, unbound drug is much greater in the […]. More specifically, a drug that is freely diffusible across the BBB will at equilibrium have a free drug B/P ratio (B/Pfree)=1, where B/Pfree=B/P×fu(brain))/fu(plasma) (Maurer, et al., 2005, Drug Metab Dispos. 33:175-181; Kalvasset al., 2007, Drug Metab Dispos. 35:660-666) and fti represents unbound drug fractions. […] To ensure that the low B/P ratios obtained with the TP antagonists of Table 1 were truly reflective of poor BBB permeability, the unbound fractions in plasma and brain homogenates were measured using established equilibrium dialysis methods (Maurer, et al., 2005, Drug Metab Dispos. 33:175-181; Kalvasset al., 2007, Drug Metab Dispos. 35:660-666; Friden, et al., 2007, Drug Metab Dispos. 35:1711-1719). […] This is further illustrated by comparing the calculated B/Pfree ratios (Table 1), which are <<1. Because the existing repertoire of TP receptor antagonists share common structural features, including free carboxylate moieties, it is highly unlikely that any of these existing compounds would be sufficiently brain-penetrant to be potential AD therapeutics.

In the next data set the target is T1, mouse TP receptor (Mus musculus, UniProt P30987).
T1 construct: expressed in transfected cells
T1 sequence (P30987 1-341): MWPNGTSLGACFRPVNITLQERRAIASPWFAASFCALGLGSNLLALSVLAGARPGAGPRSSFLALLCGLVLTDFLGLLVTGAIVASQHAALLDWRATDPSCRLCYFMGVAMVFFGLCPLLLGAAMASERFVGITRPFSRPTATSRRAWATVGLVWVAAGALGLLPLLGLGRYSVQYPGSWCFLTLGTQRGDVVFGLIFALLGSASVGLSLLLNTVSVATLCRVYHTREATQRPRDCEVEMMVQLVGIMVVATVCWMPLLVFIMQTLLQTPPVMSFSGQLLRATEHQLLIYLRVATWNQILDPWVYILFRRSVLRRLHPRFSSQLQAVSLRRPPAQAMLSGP
Description: Radioligand binding assay (3H-SQ29,548), mouse TP receptor. The following applies: mTP receptor. The method, then: (§1) QBI-HEK 293A cells expressing human or mouse TxA2 (TP) receptor were grown as described previously and harvested in phosphate-buffered saline with 1 mM EDTA. The cell pellet was homogenized in a glass homogenizer in 20 mM Hepes, 1 mM EGTA, 0.5 mM DTT with protease inhibitor cocktail. The homogenate was initially centrifuged at 1000×g for 10 minutes at 8° C. to remove cell debris. The homogenate was then centrifuged in a Beckman L8-70M ultracentrifuge (Beckman-Coulter, Brea, Calif., USA) at 21,000 rpm for 30 minutes at 4° C., and the pellet was resuspended in 20 mM Hepes, 1 mM EGTA, 100 mM NaCl. Membrane preparations were normalized to protein level as determined with a BCA assay (ThermoFisher, Rockland, Ill.) and stored at −80° C.
(§2) Test antagonists were incubated at 10 different concentrations with 25 μg membrane and 25 nM ^3H-SQ29,548 (PerkinElmer, Waltham, Mass., USA) in 50 mM Tris, 4 mM CaCl2, 0.1% ascorbic acid pH 7.5 for 2 hours at 25° C. in 96-well polystyrene plates. Separation of bound from free radioligand was accomplished by rapid vacuum filtration onto 96-well GF/B filter plates (PerkinElmer, Waltham, Mass., USA). Filters were washed 8 times in 50 mM Tris, pH 6.9 and allowed to dry for 16 hours, Plates were sealed and filters dissolved in 50 μL Betaplate Scintillation fluid (PerkinElmer, Waltham, Mass., USA) and read on a scintillation counter. Data are presented as percent total binding as calculated by a minimum of 3 wells containing membrane and ^3H-SQ29,548 without antagonist.
(§3) Equilibrium dissociation constants (Kd), IC50, and Schild regression analyses was performed with GraphPad Prism software (GraphPad Software Inc., La Jolla, Calif., USA).
(§4) To facilitate the characterization of the new compounds, cell-based TP receptor functional assays were optimized. HEK293 clones have been produced that stably express the human (hTP) or mouse (mTP) TP receptor (a isoform), and treatment of these clones with I-BOP ([1S-[1α,2α(Z),3β(1E,3S*),4α]]-7-[3-[3-hydroxy-4-(4-iodophenoxy)-1-butenyl]-7-oxabicyclo[2.2.1]hept-2-yl]-5-heptenoic acid) results in increased production of inositol triphosphate (IP3) (Knezevic, et al., 1993, Blood 82:A156; Shenker, et al., 1991, J Biol Chem 266:9309-9313; Huang, et al., 2004, Cell Signal 16:521-533) which can be quantified by measuring the breakdown product, inositol monophosphates (IP1), using a commercial time-resolved fluorescence assay. […] A radioligand binding assay was also developed to allow for the determination of binding affinities of compounds at the hTP and mTP receptors.

For a further data set, the target named is T2, human TP receptor (Homo sapiens, UniProt P21731).
T2 construct: expressed in transfected cells
T2 sequence (P21731 1-343): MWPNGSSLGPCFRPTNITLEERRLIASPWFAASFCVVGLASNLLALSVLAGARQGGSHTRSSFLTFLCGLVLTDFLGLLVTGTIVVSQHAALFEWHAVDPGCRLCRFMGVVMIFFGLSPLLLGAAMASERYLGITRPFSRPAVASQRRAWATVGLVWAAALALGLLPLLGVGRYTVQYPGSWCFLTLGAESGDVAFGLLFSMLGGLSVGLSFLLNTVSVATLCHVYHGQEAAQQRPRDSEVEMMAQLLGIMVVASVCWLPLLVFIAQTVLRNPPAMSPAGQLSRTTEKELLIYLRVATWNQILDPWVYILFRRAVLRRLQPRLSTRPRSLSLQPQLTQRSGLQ
Put plainly: Radioligand binding assay (3H-SQ29,548), human TP receptor. Conditions: hTP receptor. The method, then:
as §1, §2, §3, §4

A short description of data set [3]: Pro-drug study: plasma levels of compound and carboxylic acid hydrolysis product (51280) by LC-MS/MS. The following applies: female mice, 5 mg/kg, 1 h after injection. Format: in vivo. As to the method:
Ester and amide examples can serve as pro-drugs to release the potent carboxylic acid TP receptor antagonist CNDR-51280. Compounds in were administered at 5 mg/kg to female mice, and levels of the compound and the carboxylic acid hydrolysis product (51280) were evaluated by LC-MS/MS 1 h after injection (Table 3).

Where [4] appears, read: mice, 5 mg/kg i.p., 1 h after dosing.
Where [5] appears, read: mice, 5 mg/kg i.p., 4 h after dosing.
The mark [6] stands for this setting: female, B6C3HF1, mouse, brain/plasma (unbound), ip, 5 mg/kg.
[7] abbreviates: female, B6C3HF1, mouse, brain/plasma, ip, 5 mg/kg.

Take `CCCCCNC(=O)NS(=O)(=O)c1cc([N+](=O)[O-])ccc1NC1CCCCC1` [BM567]: the “B/P (brain-to-plasma ratio)” value in data set [1] (mice, 5 mg/kg i.p., 1 h) came to 0.01; in data set [1] (mice, 5 mg/kg i.p., 4 h), 0.01. The Brain in data set [1] (setting [4]) was 40.2 ± 12.3 ng/mL; in data set [1] (setting [5]) it was 18.5 ± 7.8 ng/mL. Also, the values for the Plasma in data set [1] (setting [4]) and in data set [1] (setting [5]) were 3600 ± 923 ng/mL and 2248 ± 1400 ng/mL, respectively. The “fu(plasma) (fraction unbound)” value in data set [2] (plasma, equilibrium dialysis) is recorded as 0.004 +/− 0.001. For the same molecule, the “fu(pl)/fu(br)” value in data set [2] (ratio of unbound fractions plasma/brain) is given as 0.20.

Turning to `O=S(=O)(NC1CCc2c(CCc3nn[nH]n3)cccc2C1)c1ccc(Cl)cc1` (centres unmarked) [Compound 51279, N-(5-(2-(2H-Tetrazol-5-yl)ethyl)-1,2,3,4-tetrahydronaphthalen-2-yl)-4-chlorobenzenesulfonamide], the “affinity for TP receptor” value at mouse TP receptor is recorded as “most tolerable substitutions”; on mouse TP receptor (listed as CNDR-51279) it was “well tolerated”; at human TP receptor, “most tolerable substitutions”; at human TP receptor (listed as CNDR-51279), “well tolerated”. Also, the “brain penetration / brain levels of the drug” value in data set [1] (B6C3F1 mice, 5 mg/kg, 1 hour after injection) was “very little brain penetration”.

On to `O=S(=O)(NC1CCc2c(CCC3OCCO3)cccc2C1)c1ccc(Cl)cc1` (centres unmarked) [Compound 51414], for which the “brain penetration / brain levels of the drug” value was “greatly increased brain levels of the drug” in data set [1] (B6C3F1 mice, 5 mg/kg, 1 hour after injection; 5 mg/kg) and “brain-penetrant” in data set [1] (B6C3F1 mice, 5 mg/kg, 1 hour after injection; listed as CNDR-51414, 5 mg/kg).

In the case of `O=C(CCc1cccc2c1CCC(NS(=O)(=O)c1ccc(Cl)cc1)C2)NCC(F)(F)F` (centres unmarked) [Compound 51418, 3-(6-(4-Chlorophenylsullfonamido)-5,6,7,8-tetrahydronaphthalen-1-yl)-N-(2,2,2-trifluoroethyl)-propanamide], in data set [3], the “Plasma (compound)” value was 109 (+/− 45) nM and the “XCOOH Plasma (carboxylic acid hydrolysis product 51280)” value is given as 100 (+/− 43) nM. Moreover, the “affinity for TP receptor” value on mouse TP receptor was “most tolerable substitutions”. The “affinity for TP receptor” value on human TP receptor is given as “most tolerable substitutions”.

For the molecule `O=C(O)Cc1ccc(CCNS(=O)(=O)c2ccc(Cl)cc2)cc1` [Daltroban], the concentration at 1 h in data set [1] (female, B6C3HF1, mouse, brain, ip, 5 mg/kg, Brain, mice, 5 mg/kg i.p., 1 h after dosing) is 133 ng/mL; in data set [1] (female, B6C3HF1, mouse, plasma, ip, 5 mg/kg, Plasma, mice, 5 mg/kg i.p., 1 h after dosing), 6450 ng/mL. For the same molecule, the concentration at 4 h in data set [1] (female, B6C3HF1, mouse, brain, ip, 5 mg/kg, Brain, mice, 5 mg/kg i.p., 4 h after dosing) was 55.9 ng/mL; in data set [1] (female, B6C3HF1, mouse, plasma, ip, 5 mg/kg, Plasma, mice, 5 mg/kg i.p., 4 h after dosing) it was 1790 ng/mL. Moreover, the values for the Kp at 1 h in data set [1] (setting [6]) and in data set [1] (setting [7]) were 0.04 and 0.02, respectively. The Kp at 4 h in data set [1] (setting [6]) is 0.06; in data set [1] (setting [7]), 0.03. The fraction unbound in data set [2] (brain homogenate, equilibrium dialysis, read-out: fu(brain) (fraction unbound)) turned out to be 0.221. Further, in data set [2] (plasma and brain homogenate, ratio of unbound fractions plasma/brain, read-out: fu(pl)/fu(br)), the plasma/brain unbound fraction ratio worked out at 0.52.

These data come from patent publication US20130190370A1, “Novel Tetrahydronaphalene Antagonists to the Thromboxane A2 (TP) Receptor” (The Trustees of the University of Pennsylvania, priority 2010, published 2013).
